What all share (assay type): physicochemical
Data set [1] in a line: Absorbance spectra of the dyes in DCM (UV-Visible/NIR spectrophotometer). To be noted: dichloromethane; for absorption (DCM) λmax: in example paragraphs the longest-wavelength absorbance peak; for absorption (DCM) ε: at absorption λmax. The source says: (§1) The absorbance spectra in FIG. 2 and FIG. 5 were obtained in DCM on a JASCO V-770 UV-Visible/[…] spectrophotometer with a 2000 nm/min or 4000 nm/min scan rate. Plotted are the baseline corrected and normalized data. The emission spectra in FIG. 2 were taken in DCM on either a Horiba Instruments PTI QuantaMaster Series fluorometer (6), a Fluoromax-3 spectrofluorometer (1, 3-5), or home-built InGaAs array detector (Princeton Instruments). For 6 the following parameters were used: ex. 610 nm, emission collected from 620-900 nm, slits 5 nm, step size 1 nm, integration time 1 s. Plotted is the DCM corrected, baseline corrected, normalized data. For 1, and 3-5, the following parameters were used: slits 5 nm, step size 1 nm, integration time, 0.25 s. Excitation values and emission collection were as follows: 1 (ex. 460, collection 470-800 nm), 5 (ex. 675 nm, collection 685-950 nm), 4 (ex. 840 nm, emission 850-1100 nm), 3 (ex. 730 nm, emission 950-1400). Plotted are the baseline corrected, normalized data. The emission spectra in FIG. 5 were taken in dichloromethane on a Horiba Instruments QuantaMaster Series fluorometer with excitation slits: 15 nm, emission slits: 30 nm, step size: 1 nm, integration time: 0.1 s and excitation wavelengths as indicated.

Data set [2] can be described thus: Emission spectra of the dyes in DCM. To be noted: dichloromethane; for Emission (CH2Cl2): Example 4 dyes, excitation 806-900 nm per dye; for emission (DCM) λmax: dyes 1, 3-6 and reference dyes.
Source text: as §1

A short description of data set [3]: Absolute fluorescence quantum yield using an integrating sphere. To be noted: for QE, εΦF (quantum efficiency) / ΦF (fluorescence quantum yield): dichloromethane; for ΦF (fluorescence quantum yield): absolute value. On the procedure: Polymethine dyes disclosed herein are characterized with respect to their photophysics including absorption, emission, extinction coefficient, quantum yields, and fluorescence lifetime. All quantum yields values obtained are absolute quantum yields values measured using an integrating sphere. Photostabilities are evaluated by sample irradiation with high powered LEDs. Additionally, solvatochromism, solvent compatibility, and stability are assessed.

The nature of data set [4]: Photobleaching under continuous-wave irradiation at 532 nm. Conditions: for relative rate, krel (photobleaching): 532 nm irradiation; for relative rate, krel (photobleaching) / photostability (in words) / raw rate, k (photobleaching) / ε at 532 nm: dichloromethane; for raw rate, k (photobleaching): continuous-wave irradiation 532 nm, 0.53 fluence. The method, then:
Photostabilities of the Flay series were measured under continuous-wave irradiation (532 nm, 0.53 fluence).

We go through 14 compounds from patent US11292778B2, “Heterocyclyl polymethine IR chromophores” (The Regents of the University of California, priority 2017, dated 2022).

Where “and” joins values, the source holds several entries; their conditions need not be identical. Identical values can stand only once. Entries after “also recorded” stand apart in the source; their conditions may differ.

Regarding `ClC1=C(/C=C/c2cc(-c3ccccc3)[o+]c3ccc4ccccc4c23)CCC/C1=C\C=C1/C=C(c2ccccc2)Oc2ccc3ccccc3c21.F[B-](F)(F)F` [1-((E)-2-((E)-2-chloro-3-((E)-2-(3-phenyl-1H-benzo[f]chromen-1-ylidene)ethylidene)cyclohex-1-en-1-yl)vinyl)-3-phenylbenzo[f]chromen-4-ium tetrafluoroborate], the “absorption (DCM) λmax” value in data set [1] turned out to be 1014 nm. The “Emission (CH2Cl2)” value in data set [2] turned out to be 1055 nm.
Take `CCN(CC)c1ccc2c(c1)OC(c1ccccc1)=C/C2=C\C=C1/CCCC(/C=C/c2cc(-c3ccccc3)[o+]c3cc(N(CC)CC)ccc23)=C1Cl.F[B-](F)(F)F` [4-((E)-2-((E)-2-chloro-3-(2-((E)-7-(diethylamino)-2-phenyl-4H-chromen-4-ylidene)ethylidene)cyclohex-1-en-1-yl)vinyl)-7-(diethylamino)-2-phenylchromenylium tetrafluoroborate]: in data set [1], the “absorption (DCM) ε” value was 1.8±0.2×10^5 M^−1cm^−1 and the “absorption (DCM) λmax” value was 1034 nm. For the same compound, the “Emission (CH2Cl2)” value in data set [2] turned out to be 1062 nm.
`CN(C)c1ccc2c(c1)OC(c1ccccc1)=C/C2=C\C=C1/CCCC(/C=C/c2cc(-c3ccccc3)[o+]c3cc(N(C)C)ccc23)=C1Cl.F[B-](F)(F)F` [4-((E)-2-((E)-2-chloro-3-(2-((E)-7-(dimethylamino)-2-phenyl-4H-chromen-4-ylidene)ethylidene)cyclohex-1-en-1-yl)vinyl)-7-(dimethylamino)-2-phenylchromenylium tetrafluoroborate]: the “absorption (DCM) λmax” value in data set [1] is listed as 1026 nm. Besides, the “Emission (CH2Cl2)” value in data set [2] was 1054 nm.
For `ClC1=C(/C=C/c2cc(-c3ccccc3)[o+]c3cc(N(c4ccccc4)c4ccccc4)ccc23)CCC/C1=C\C=C1/C=C(c2ccccc2)Oc2cc(N(c3ccccc3)c3ccccc3)ccc21.F[B-](F)(F)F` [4-((E)-2-((E)-2-chloro-3-(2-((E)-7-(diphenylamino)-2-phenyl-4H-chromen-4-ylidene)ethylidene)cyclohex-1-en-1-yl)vinyl)-7-(diphenylamino)-2-phenylchromenylium tetrafluoroborate], in that order: 1047 nm and 1079 nm.
As for `ClC1=C(/C=C/c2cc(-c3ccccc3)[o+]c3c2ccc2ccccc23)CCC/C1=C\C=C1/C=C(c2ccccc2)Oc2c1ccc1ccccc21.F[B-](F)(F)F` [4-((E)-2-((E)-2-chloro-3-((E)-2-(2-phenyl-4H-benzochromen-4-ylidene)ethylidene)cyclohex-1-en-1-yl)vinyl)-2-phenylbenzo chromen-1-ium tetrafluoroborate], in data set [1], the “absorption (DCM) λmax” value amounted to 998 nm. Also, in data set [2], the “Emission (CH2Cl2)” value was found to be 1024 nm.
Turning to `ClC1=C(/C=C/c2cc(-c3ccccc3)[o+]c3cc(N4CCC4)ccc23)CCC/C1=C\C=C1/C=C(c2ccccc2)Oc2cc(N3CCC3)ccc21.F[B-](F)(F)F` [7-(azetidin-1-yl)-4-((E)-2-((E)-3-(2-((E)-7-(azetidin-1-yl)-2-phenyl-4H-chromen-4-ylidene)ethylidene)-2-chlorocyclohex-1-en-1-yl)vinyl)-2-phenylchromenylium tetrafluoroborate], in data set [1], the “absorption (DCM) ε” value is given as 2.07±0.01×10^5 M^−1cm^−1 and the “absorption (DCM) λmax” value was determined as 1029 nm. For the same compound, the “Emission (CH2Cl2)” value in data set [2] stood at 1059 nm.
As for `ClC1=C(/C=C/c2cc(-c3ccccc3)[o+]c3c4c5c(cc23)CCCN5CCC4)CCC/C1=C\C=C1/C=C(c2ccccc2)Oc2c1cc1c3c2CCCN3CCC1.F[B-](F)(F)F` [9-((E)-2-((E)-2-chloro-3-((E)-2-(11-phenyl-2,3,6,7-tetrahydro-1H,5H,9H-pyrano[2,3-f]pyrido[3,2,1-ij]quinolin-9-ylidene)ethylidene)cyclohex-1-en-1-yl)vinyl)-11-phenyl-2,3,6,7-tetrahydro-1H,5H-pyrano[2,3-f]pyrido[3,2,1-ij]quinolin-12-ium tetrafluoroborate], in data set [1], the “absorption (DCM) ε” value is on record as 2.38±0.07×10^5 M^−1cm^−1 and the “absorption (DCM) λmax” value was found to be 1061 nm. For the same compound, the “Emission (CH2Cl2)” value in data set [2] was 1089 nm.
For `C1=C(c2ccccc2)Oc2c(cc3c4c2CCCN4CCC3)/C1=C/C=C/C=C/c1cc(-c2ccccc2)[o+]c2c3c4c(cc12)CCCN4CCC3.F[B-](F)(F)F` [11-phenyl-9-((1E,3E,5E)-5-(11-phenyl-2,3,6,7-tetrahydro-1H,5H,9H-pyrano[2,3-f]pyrido[3,2,1-ij]quinolin-9-ylidene)penta-1,3-dien-1-yl)-2,3,6,7-tetrahydro-1H,5H-pyrano[2,3-f]pyrido[3,2,1-ij]quinolin-12-ium tetrafluoroborate], in that order: 2.5±0.1×10^5 M^−1cm^−1, 897 nm and 934 nm.
As for `Cc1cc(-c2ccccc2)[o+]c2cc(N(C)C)ccc12` [Dye 1, 7-N,N-dimethylamino-4-methyl-flavylium perchlorate], in data set [1], the “absorption (DCM) ε” value turned out to be 17000 M⁻¹ cm⁻¹ and the “absorption (DCM) λmax” value was 510 nm. Further, in data set [2], the “emission (DCM) λmax” value was determined as 587 nm.
For the compound `CN(C)c1ccc2c(c1)OC(c1ccccc1)=C\C2=C/C=C/C=C/c1cc(-c2ccccc2)[o+]c2cc(N(C)C)ccc12.[O-][Cl+3]([O-])([O-])[O-]` [Dye 4], the “absorption (DCM) λmax” value in data set [1] came to 862 nm. For the same compound, the “QE, εΦF (quantum efficiency)” value in data set [3] was 10000 M⁻¹ cm⁻¹. In data set [3] (listed as Flav5), the “QE, εΦF (quantum efficiency)” value is 10^3 M^−1cm^−1. Moreover, in data set [4], the “relative rate, krel (photobleaching)” value came out at 4.0 ± 0.2; the “raw rate, k (photobleaching)” value stood at 2.6 ± 0.2 s^−1 × 10^−3; the “ε at 532 nm” value is 1.29 ± 0.08 M^−1cm^−1 × 10^4. Further, the “photostability (in words)” value in data set [4] (532 nm laser, listed as Flav5) is listed as “extremely high photostabilities; also recorded: excellent photostabilities”. For the same compound, in data set [2], the “Stoke's shift” value is on record as 46 nm and the “emission (DCM) λmax” value is 908 nm.
Consider `CN(C)c1ccc2c(c1)OC(c1ccccc1)=C/C2=C\C=C\c1cc(-c2ccccc2)[o+]c2cc(N(C)C)ccc12.[O-][Cl+3]([O-])([O-])[O-]` [Dye 5, 7-(dimethylamino)-4-((E)-3-((E)-7-(dimethylamino)-2-phenyl-4H-chromen-4-ylidene)prop-1-en-1-yl)-2-phenylchromenylium perchlorate], for which, in data set [1] (listed as Flav3), the “absorption (DCM) ε” value is reported as ~220,000 M^−1cm^−1 and the “absorption (DCM) λmax” value is approximately 745 nm. Moreover, in data set [1], the “absorption (DCM) λmax” value was 746 nm. Further, in data set [3], the “QE, εΦF (quantum efficiency)” value was determined as 6600 M⁻¹ cm⁻¹; the “ΦF (fluorescence quantum yield)” value was 2.9±0.5% and 2.9%. Moreover, in data set [4], the “relative rate, krel (photobleaching)” value is recorded as 1.00 ± .06; the “raw rate, k (photobleaching)” value worked out at 1.00 ± 0.06 s^−1 × 10^−3; the “ε at 532 nm” value is 2.0 ± 0.1 M^−1cm^−1 × 10^4. The “photostability relative to HITCI” value in data set [4] (532 nm laser) is listed as 4 fold. Also, the “photostability (in words)” value in data set [4] (532 nm laser, listed as Flav3) is on record as “extremely high photostabilities; also recorded: excellent photostabilities”. Moreover, the “emission (DCM) λmax” value in data set [2] is recorded as 766 nm.
For `CN(C)c1ccc2c(c1)OC(c1ccccc1)=C/C2=C\c1cc(-c2ccccc2)[o+]c2cc(N(C)C)ccc12.O=C([O-])C(F)(F)F` [Dye 6, (E)-7-(dimethylamino)-4-((7-(dimethylamino)-2-phenyl-4H-chromen-4-ylidene)methyl)-2-phenylchromenylium 2,2,2-trifluoroacetate], the “absorption (DCM) λmax” value in data set [1] was determined as 650 nm. For the same compound, the “QE, εΦF (quantum efficiency)” value in data set [3] came to 100 M⁻¹ cm⁻¹. In addition, the “ΦF (fluorescence quantum yield)” value in data set [3] (2,2,2-trifluoroacetate) was 0.7±0.5% and 0.7%. For the same compound, in data set [4], the “relative rate, krel (photobleaching)” value came to 4 ± 1; the “raw rate, k (photobleaching)” value came out at 0.43 ± 0.01 s^−1 × 10^−3; the “ε at 532 nm” value is 0.23 ± 0.08 M^−1cm^−1 × 10^4. In addition, the “photostability (in words)” value in data set [4] (532 nm laser, listed as Flav1, 2,2,2-trifluoroacetate) is given as “extremely high photostabilities; also recorded: excellent photostabilities”. In addition, in data set [2], the “emission (DCM) λmax” value is recorded as 684 nm.
As to `CN1C(=CC=CC=CC=CC2=[N+](C)c3ccccc3C2(C)C)C(C)(C)c2ccccc21.[I-]` [HITCI, 1,1′,3,3,3′,3′-hexamethylindotricarbocyanine iodide, reference compound], the “ΦF relative to Flav3” value in data set [3] is approximately 10 fold.
Turning to `ClC1=C(/C=C/c2cc(-c3ccccc3)[s+]c(-c3ccccc3)c2)CCC/C1=C/C=C1C=C(c2ccccc2)SC(c2ccccc2)=C1.F[B-](F)(F)F` [IR-1061, reference compound], the “ΦF (fluorescence quantum yield)” value in data set [3] is recorded as 0.32±0.04%. Moreover, in data set [2], the “emission (DCM) λmax” value is on record as 1081 nm.
